Results on 3 molecules are retold here after publication PMC10708454, “Mentha spp. Essential Oils: A Potential Toxic Fumigant with Inhibition of Acetylcholinesterase Activity on Reticulitermes dabieshanensis” (Plants, 2023).

SMILES strings stand for the structures.

This test concerns the target T1, acetylcholinesterase (AChE).
T1 construct: gene ace-1; native enzyme in crude whole-worker homogenate (Triton X-100 supernatant), not purified; the docking model is of Coptotermes formosanus, not this enzyme
Briefly: Ellman assay, crude termite homogenate. Format: biochemical, Reticulitermes dabieshanensis. Conditions: acetylthiocholine iodide (10 mM stock), DTNB, Tris-HCl pH 7.8, 30 min, inhibitor in alcohol.

Take `C=C(C)C1CC=C(C)C(=O)C1` (stereo not drawn) [carvone]: for the setting “0.5-6.0 μL/mL”, the “IC50 ^a (95% CI ^b)” value is recorded as 1.922 (1.131–3.308) μL/mL. For `C=CC(C)(O)CCC=C(C)C` (stereo not drawn) [linalool], the “IC50 ^a (95% CI ^b)” value (0.5-6.0 μL/mL) was 0.136 (0.066–0.218) μL/mL. Consider `CC(C)[C@@H]1CC[C@@H](C)C[C@H]1O` [menthol], for which the “IC50 ^a (95% CI ^b)” value (1.0-20.0 μL/mL (value outside tested range)) is reported as 76.790 (36.58–166.367) μL/mL.
